The values below come from patent publication US6214882A, “Benzenesulphonamide derivatives, preparation thereof and therapeutical uses thereof” (Synthelabo, priority 1995, dated 2001).

The subject of one experiment is urethral smooth muscles. Kind of experiment: in vitro contraction of rabbit urethra rings. It counts as cell-based. As to conditions: Oryctolagus cuniculus, read-out: urethral pD2 (converted). As for the experimental part: (§1) The in vitro activity of the compounds of the invention was studied on urethral and arterial smooth muscles.
(§2) These experiments were carried out on female New Zealand rabbits weighing from 3 to 3.5 kg. The animals were killed by vertebral dislocation, and rings of tissue were then removed from mesenteric arteries and from the urethra. These rings of tissue were immersed in a modified Krebs solution and oxygenated with a mixture of 95% O2 and 5% CO2. Each sample of tissue was subjected to a tension of 1 g, phenylephrine was then introduced at cumulative doses and the dose/response curve was established. After rinsing of the samples, the test compound was introduced at cumulative doses and the dose/response curve was established. The α1 -adrenergic effect of each compound is evaluated by calculating the pD2 (negative logarithm of the concentration of antagonist in the presence of which the effect of a dose of the agonist is divided by 2), as well as by the maximum effect representing the percentage of the maximum contraction obtained with phenylephrine (% Emax)

For a further experiment, the system named is arterial smooth muscles. Kind of experiment: in vitro contraction of rabbit mesenteric artery rings. It counts as cell-based. As to conditions: Oryctolagus cuniculus, read-out: arterial pD2 (converted). As for the experimental part: as §1, §2

Take `CNC[C@H](O)c1cccc(O)c1` [phenylephrine]: the EC50 in the experiment on urethral smooth muscles and in the experiment on arterial smooth muscles was 3.16 to 6.31 µM in each case.
